Measurements taken from paper PMC4106024 (Cancer biology & therapy, 2008).
Entries after “also recorded” stand apart in the source; their conditions may differ. Where two headings read alike, the source gives them in different places. *: point of attachment. Cbz = O=C(OCc1ccccc1)*; CH2F = FC*

How the values were obtained:
[1] = in vivo, cited from earlier work
[2] = tested on: Bcl-2 expressing B-cells; conditions: in vitro; cited from earlier work
[3] = tested on: non-tumor-bearing SCID mice; assay: Maximal tolerated dose
[4] = Maximal tolerated dose; conditions: SCID, mouse, in vivo, iv, 40 mg/kg
[5] = tested on: normal female Balb/c mice; conditions: 120 μM/kg (approximately 62 mg/kg), five days daily po × 3 weeks; versus vehicle control or Apogossypol; cited from earlier work
[6] = tested on: DLCL2 cells; assay: Growth inhibition of DLCL2 cells with caspase inhibitors and/or ApoG2; format: cell-based, human
[7] = tested on: WSU-DLCL2 cells; assay: Acridine orange/ethidium bromide; format: cell-based, human; conditions: 4.0 μm
[8] = tested on: WSU-DLCL2 xenografts; assay: In vivo efficacy test in WSU-DLCL2 SCID mouse xenografts; set-up: species or system ICR-SCID mice; conditions: 600 mg/kg (120 mg/kg daily for 5 days), iv or po
[9] = Stability test in solid state, spectral purity by HPLC-UV; format: physicochemical; conditions: amber glass container, room temperature, n = 2
[10] = tested on: normal peripheral blood lymphocytes; assay: Cytotoxic effect on normal lymphocytes, Trypan Blue cell counting; conditions: as high as 8 μM, 72 h
[11] = target: recombinant human Mcl-1 (Homo sapiens, UniProt Q07820); assay: Fluorescence polarization-based competitive binding assay
[12] = tested on: PANC-1 cells; assay: Cell growth inhibition, MTT assay; format: cell-based, human; conditions: PANC-1, very low level of Bcl-2
[13] = Stability under stressed conditions, spectral purity by HPLC-UV; format: physicochemical; conditions: n = 2
[14] = tested on: cleavage of caspase-3, caspase-9 and PARP; assay: Western blot of apoptosis markers in WSU-DLCL2 cells; format: cell-based, human; conditions: WSU-DLCL2 whole cell lysate
[15] = tested on: FSCCL cells; assay: Cell growth inhibition, Trypan blue cell counting; format: cell-based, human; conditions: high level of Bcl-2
[16] = Serum concentration in mice; format: in vivo; conditions: iv 80 mg/kg per day for five days
[17] = tested on: primary cells of mantle cell lymphoma; assay: Cytotoxic effect on patient-derived primary cells, Trypan Blue cell counting; conditions: 350 nM or higher, 72 h
[18] = tested on: WSU-DLCL2 cells; assay: Cell growth inhibition by Trypan Blue cell counting and MTT assay; format: cell-based, human; conditions: WSU-DLCL2, 350 nM, Trypan Blue cell counting
[19] = tested on: WM cells; assay: Cell growth inhibition, Trypan blue cell counting; format: cell-based, human; conditions: very low level of Bcl-2
[20] = tested on: primary cells of chronic lymphocytic leukemia; assay: Cytotoxic effect on patient-derived primary cells, Trypan Blue cell counting; conditions: 350 nM or higher, 72 h
[21] = tested on: protein levels of Bcl-XL or Bim; assay: Western blot of whole cell lysate for Bcl-XL and Bim; format: cell-based, human; conditions: concentrations up to 5 μM
[22] = tested on: non-tumor-bearing SCID mice; conditions: in vivo
[23] = tested on: WSU-DLCL2 cells; conditions: read-out: Estimated IC50; cited from earlier work

Sequence of recombinant human Mcl-1 (Q07820 whole entry): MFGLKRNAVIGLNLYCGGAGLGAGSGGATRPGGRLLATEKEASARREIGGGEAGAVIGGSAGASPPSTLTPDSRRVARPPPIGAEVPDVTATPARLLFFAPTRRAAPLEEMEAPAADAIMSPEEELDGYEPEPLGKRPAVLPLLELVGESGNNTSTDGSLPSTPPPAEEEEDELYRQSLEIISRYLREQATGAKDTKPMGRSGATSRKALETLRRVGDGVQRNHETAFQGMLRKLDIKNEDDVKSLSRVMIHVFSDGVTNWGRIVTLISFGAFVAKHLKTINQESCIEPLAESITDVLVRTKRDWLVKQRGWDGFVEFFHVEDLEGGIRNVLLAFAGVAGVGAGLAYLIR

Cc1cc2c(C(C)C)c(O)c(O)c(C=O)c2c(O)c1-c1c(C)cc2c(C(C)C)c(O)c(O)c(C=O)c2c1O [gossypol]
Bioavailability when given orally ([1]; po): 12.2–17.6% | medial lethal dose (LD50) [2]: 7.5 to 10 µM | Signs of toxicity at MTD ([3]; 120 mg/kg (3 x 40 mg/kg iv)): scruffy and rough hair as well as lethargic behavior | Weight loss at MTD ([3]; 120 mg/kg (3 x 40 mg/kg iv), data not shown): < 5% | Lethality ([3]; daily iv injection of 40 mg/kg for 4 days or 60 mg/kg for three days): lethal | H & E staining of sections of mouse liver, small and large intestines ([3]; versus vehicle control, data not shown): no abnormality | MTD at 3 days [4]: 120 mg/kg | Hepatotoxicity and gastrointestinal toxicity [5]: a great deal of hepatotoxicity and gastrointestinal toxicity

Cbz-LEHD-CH2F
Growth inhibition, caspase inhibitor alone [6]: no effects of growth inhibition

Z-DEVD-FMK
Growth inhibition, caspase inhibitor alone [6]: no effects of growth inhibition

Apogossypolone [ApoG2]
Apoptotic cells (AO/EtBr) ([7]; 24 h, control approximately 3%): 10% | Apoptotic cells (AO/EtBr) ([7]; 48 h, control approximately 4%): 17% | Apoptotic cells (AO/EtBr) ([7]; 72 h, control approximately 7%): 32% | Growth inhibition of mouse xenografts, single agent [8]: comparable with that resulted from treatment with CHOP; also recorded: significant growth inhibition | Spectral purity in solid state ([9]; 0 h): 100.0 ± 0% | Spectral purity in solid state ([9]; 2 weeks): 100.0 ± 0.1% | Spectral purity in solid state ([9]; 3 weeks): 100.0 ± 0.1% | Spectral purity in solid state ([9]; 4 days): 99.7 ± 0.5% | Spectral purity in solid state ([9]; 7 days): 99.9 ± 0.2% | Cytotoxicity on normal cells [10]: no major cytotoxicity; also recorded: no toxicity | Ki ([11]; recombinant Mcl-1, n = 3): 25 ± 10 nM | Growth inhibition [12]: induces growth inhibition | Spectral purity under stressed conditions ([13]; 0.1 N HCI, 5 mm): 96.5 ± 0.4% | Spectral purity under stressed conditions ([13]; 0.1 N NaOH, 5 mm): 96.3 ± 0.4% | Spectral purity under stressed conditions ([13]; 30% H2O2, 5 mm): 97.3 ± 0.2% | Spectral purity under stressed conditions ([13]; Normal light, 2 h): 95.2 ± 0.2% | Spectral purity under stressed conditions ([13]; Reference): 98.0 ± 0.4% | Cleavage of caspase-3, caspase-9 and PARP [14]: resulted in the activation of cleavages of caspase-3, caspase-9 and PARP | Growth inhibition [15]: induces growth inhibition | Serum concentration (unbound) [16]: 5.0 µM | Cytotoxic effect [17]: significant cytotoxic effect | Growth inhibition [18]: approximately 50% | Growth inhibition [19]: induces growth inhibition | Cytotoxic effect [20]: significant cytotoxic effect | Protein levels of Bcl-XL or Bim [21]: did not affect significantly | H & E staining of sections of mouse liver, small and large intestines [22]: no abnormality

Cc1cc2c(C(C)C)c(O)c(O)c(C=O)c2c(O)c1-c1c(C)cc2c(C(C)C)c(O)c(O)c(C=O)c2c1O (racemic) [Racemic gossypol, gossypol, reference compound]
Spectral purity in solid state ([9]; 0 h): 100.0 ± 0% | Spectral purity in solid state ([9]; 2 weeks): 99.9 ± 0.1% | Spectral purity in solid state ([9]; 3 weeks): 99.8 ± 0.2% | Spectral purity in solid state ([9]; 4 days): 99.4 ± 0.1% | Spectral purity in solid state ([9]; 7 days): 99.8 ± 0.1% | Spectral purity under stressed conditions ([13]; 0.1 N HCI, 5 mm): 15.8 ± 0.4% | Spectral purity under stressed conditions ([13]; 0.1 N NaOH, 5 mm): 10.4 ± 0.2% | Spectral purity under stressed conditions ([13]; 30% H2O2, 5 mm): 14.5 ± 0.4% | Spectral purity under stressed conditions ([13]; Normal light, 2 h): 92.3 ± 0.2% | Spectral purity under stressed conditions ([13]; Reference): 92.6 ± 0.6%

Cbz-Val-Ala-Asp-CH2F
Growth inhibition, caspase inhibitor alone [6]: no effects of growth inhibition

Cc1cc2c(C(C)C)c(O)c(O)c(C=O)c2c(O)c1-c1c(C)cc2c(C(C)C)c(O)c(O)c(C=O)c2c1O [(-)-gossypol, reference compound]
Ki [11]: 170 ± 10 nM | IC50 [23]: > 1000 nM

Cc1cc2c(C(C)C)c(O)c(O)cc2c(O)c1-c1c(C)cc2c(C(C)C)c(O)c(O)cc2c1O [Apogossypol]
Blood concentrations over time [1]: superior blood concentrations over time compared to gossypol | medial lethal dose (LD50) [2]: 3 to 5 µM
